In the supplement of paper PMC4862054:
Where “and” joins values, the source holds several entries; their conditions need not be identical. Identical values can stand only once.

These compounds were tested on CAL-148 (assay: normalised viability (% of control), CellTiter-Blue; higher = more viable cells (about 100 = DMSO control)). Conditions: 7.5 nM; incubation time: 72 h.
Summary of the method: (§1)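 384-well plates were pre-loaded with compound in 5 µl medium before 20 µl of breast cancer cell suspension was seeded. Following 72 h incubation, 2.5 µl CellTiter-Blue reagent was added for 2 h at 37 °C. Fluorescence was read at 560/590 nm and plates were normalised to vehicle (100) and a positive kill control (0), checked by Z'-factor. Normalised viability is reported at a single listed concentration of the series.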
`c1cc(CN2CCCNCCNCCCNCC2)ccc1CN1CCCNCCNCCCNCC1` [Plerixafor] showed a normalised viability of 89.2%.

Same assay, conditions: 10 nM; incubation time: 72 h
With `CC[C@@]1(O)C(=O)OCc2c1cc1n(c2=O)Cc2cc3c(CN(C)C)c(O)ccc3nc2-1` [Topotecan] the normalised viability was 96.5%.

Same assay, conditions: 25 nM; incubation time: 72 h
`c1cc(CN2CCCNCCNCCCNCC2)ccc1CN1CCCNCCNCCCNCC1` [Plerixafor] gave a normalised viability of 82.7%.

Same assay, conditions: 30 nM; incubation time: 72 h
For `Nc1ccccc1NC(=O)c1ccc(CNc2nccc(-c3cccnc3)n2)cc1` [Mocetinostat], the normalised viability was 93.7%.
`COc1nc(N)nc2c1ncn2[C@@H]1O[C@H](CO)[C@@H](O)[C@@H]1O` [Nelarabine] was tested, and the normalised viability was 94.7% and 93.5%.
`Cc1ccc(Nc2nccc(N(C)c3ccc4c(C)n(C)nc4c3)n2)cc1S(N)(=O)=O` [Pazopanib] showed a normalised viability of 88.9%.
`O=C(CCBr)N1CCN(C(=O)CCBr)CC1` [Pipobroman] showed a normalised viability of 102%.
`C[C@]12C=CC(=O)C=C1CC[C@@H]1[C@@H]2[C@@H](O)C[C@@]2(C)[C@H]1CC[C@]2(O)C(=O)CO` [Prednisolone] was tested, and the normalised viability was 118%.

Same assay, conditions: 100 nM; incubation time: 72 h
`Nc1ccccc1NC(=O)c1ccc(CNc2nccc(-c3cccnc3)n2)cc1` [Mocetinostat] gave a normalised viability of 99.8%.
With `COc1nc(N)nc2c1ncn2[C@@H]1O[C@H](CO)[C@@H](O)[C@@H]1O` [Nelarabine] the normalised viability was 95.4% and 91.8%.
For `Cc1ccc(Nc2nccc(N(C)c3ccc4c(C)n(C)nc4c3)n2)cc1S(N)(=O)=O` [Pazopanib], the normalised viability was 82.1%.
In the case of `O=C(CCBr)N1CCN(C(=O)CCBr)CC1` [Pipobroman], the normalised viability is reported as 103%.
`C[C@]12C=CC(=O)C=C1CC[C@@H]1[C@@H]2[C@@H](O)C[C@@]2(C)[C@H]1CC[C@]2(O)C(=O)CO` [Prednisolone] showed a normalised viability of 107%.

Each compound was assayed on MDA-MB-453 in the same assay as above. Conditions: 0.3 nM; incubation time: 72 h.
Summary of the method: as §1
In the case of `CC[C@@]1(O)C(=O)OCc2c1cc1n(c2=O)Cc2cc3c(CN(C)C)c(O)ccc3nc2-1` [Topotecan], the normalised viability is reported as 103%.

Same assay, conditions: 0.75 nM; incubation time: 72 h
For `c1cc(CN2CCCNCCNCCCNCC2)ccc1CN1CCCNCCNCCCNCC1` [Plerixafor], the normalised viability was 116%.

Same assay, conditions: 3 nM; incubation time: 72 h
With `Nc1ccccc1NC(=O)c1ccc(CNc2nccc(-c3cccnc3)n2)cc1` [Mocetinostat] the normalised viability was 116%.
With `COc1nc(N)nc2c1ncn2[C@@H]1O[C@H](CO)[C@@H](O)[C@@H]1O` [Nelarabine] the normalised viability was 93.2% and 104%.
Work on `Cc1ccc(Nc2nccc(N(C)c3ccc4c(C)n(C)nc4c3)n2)cc1S(N)(=O)=O` [Pazopanib] yielded a normalised viability of 97.7%.
Work on `O=C(CCBr)N1CCN(C(=O)CCBr)CC1` [Pipobroman] yielded a normalised viability of 124%.
For `C[C@]12C=CC(=O)C=C1CC[C@@H]1[C@@H]2[C@@H](O)C[C@@]2(C)[C@H]1CC[C@]2(O)C(=O)CO` [Prednisolone], the normalised viability was 107%.
`CC[C@@]1(O)C(=O)OCc2c1cc1n(c2=O)Cc2cc3c(CN(C)C)c(O)ccc3nc2-1` [Topotecan] was tested, and the normalised viability was 107%.

Same assay, conditions: 7.5 nM; incubation time: 72 h
Compound `c1cc(CN2CCCNCCNCCCNCC2)ccc1CN1CCCNCCNCCCNCC1` [Plerixafor] has a normalised viability of 114%.

Same assay, conditions: 10 nM; incubation time: 72 h
`CC[C@@]1(O)C(=O)OCc2c1cc1n(c2=O)Cc2cc3c(CN(C)C)c(O)ccc3nc2-1` [Topotecan] showed a normalised viability of 102%.

Same assay, conditions: 25 nM; incubation time: 72 h
Compound `c1cc(CN2CCCNCCNCCCNCC2)ccc1CN1CCCNCCNCCCNCC1` [Plerixafor] has a normalised viability of 106%.

Same assay, conditions: 30 nM; incubation time: 72 h
`Nc1ccccc1NC(=O)c1ccc(CNc2nccc(-c3cccnc3)n2)cc1` [Mocetinostat] showed a normalised viability of 96.1%.
With `COc1nc(N)nc2c1ncn2[C@@H]1O[C@H](CO)[C@@H](O)[C@@H]1O` [Nelarabine] the normalised viability was 99.5% and 116%.
In the case of `Cc1ccc(Nc2nccc(N(C)c3ccc4c(C)n(C)nc4c3)n2)cc1S(N)(=O)=O` [Pazopanib], the normalised viability is reported as 108%.
`O=C(CCBr)N1CCN(C(=O)CCBr)CC1` [Pipobroman] was tested, and the normalised viability was 95.9%.
Work on `C[C@]12C=CC(=O)C=C1CC[C@@H]1[C@@H]2[C@@H](O)C[C@@]2(C)[C@H]1CC[C@]2(O)C(=O)CO` [Prednisolone] yielded a normalised viability of 106%.

Same assay, conditions: 100 nM; incubation time: 72 h
In the case of `Nc1ccccc1NC(=O)c1ccc(CNc2nccc(-c3cccnc3)n2)cc1` [Mocetinostat], the normalised viability is reported as 87.5%.
`COc1nc(N)nc2c1ncn2[C@@H]1O[C@H](CO)[C@@H](O)[C@@H]1O` [Nelarabine] was tested, and the normalised viability was 93.8% and 101%.
Work on `Cc1ccc(Nc2nccc(N(C)c3ccc4c(C)n(C)nc4c3)n2)cc1S(N)(=O)=O` [Pazopanib] yielded a normalised viability of 102%.
`O=C(CCBr)N1CCN(C(=O)CCBr)CC1` [Pipobroman] gave a normalised viability of 92.7%.
`C[C@]12C=CC(=O)C=C1CC[C@@H]1[C@@H]2[C@@H](O)C[C@@]2(C)[C@H]1CC[C@]2(O)C(=O)CO` [Prednisolone] was tested, and the normalised viability was 95.5%.
